The record followed here is publication PMC12598805, “Crystal Structure–Activity Relationship of Some MeO Phenylacrylonitriles: Dual Antimicrobial–Cytotoxic Effects and in Silico Perspectives” (ChemistryOpen, 2025).

Series [1] relates to Escherichia coli (ATCC 25922). In words: Agar diffusion, zone of inhibition. Type of series: cell-based. The note with it: compounds at 50 mg mL^−1; for zone of inhibition: E.coli; for zone of inhibition at 50 mg/mL: Escherichia coli, ATCC25922, E.coli. An excerpt: The antibacterial and antifungal activities were reported utilizing the method described by the Clinical & Laboratory Standards Institute.^[ [31], [32] ^] Agar diffusion method was used to determine the antimicrobial activity of the synthesized substances. The media used were mueller hinton agar (MHA) for bacteria and sabouraud‐dextrose agar (SDA) for fungi (Merck), as recommended by the manufacturer.
The synthesized compounds were initially investigated for their antimicrobial activity to elucidate the potential therapeutic utility against various pathogenic microbes using the agar plate diffusion method. The compounds were tested at a concentration of 50 mg mL^−1, and the antibiotics (ampicillin, kanamycin, and amphotericin B) were used at 5 mg mL^−1. […] K.pneumoniae and B.cereus were resistant to ampicillin, while they were susceptible to kanamycin with inhibition values of 30 and 26 mm, respectively. No antimicrobial activity of the compounds was observed against E.faecalis, S.typhimurium, K.pneumoniae, and for the fungus compared to Amphotericin B (20 mm). […]
Escherichia coli (ATCC 25922) […]
ATCC: American Type Culture Collection; NRRL: Northern Regional Research Laboratory The compounds 2(a-c) obtained could only be completely solubilised with dimethyl sulphoxide (DMSO) and the highest possible stock solutions of 50 mg.mL-1 were prepared. To these wells 50 μl of the previously prepared substances were transferred using sterile micropipette tips. For comparison, Ampicillin and kanamycin antibiotics for bacteria and Amphotericin B antibiotics for fungus were used as positive controls and DMSO was used as negative control. The prepared petri plates were kept at +4°C for about 1 hour and then the bacterial cultures were incubated at 37°C for 18-24 hours and mould cultures at 27-30°C for 48-72 hours. The zones formed were measured millimetrically with callipers. The experiments were performed with three repetitions. […]

Series [2] has as its system Staphylococcus aureus (ATCC 29213). Briefly: MBC by sub-culture from wells without growth. It counts as cell-based. Particulars: ATCC29213, S.aureus. The procedure:
Staphylococcus aureus (ATCC 29213) […]
ATCC: American Type Culture Collection; NRRL: Northern Regional Research Laboratory The compounds 2(a-c) obtained could only be completely solubilised with dimethyl sulphoxide (DMSO) and the highest possible stock solutions of 50 mg.mL-1 were prepared. […]
3.1. Determination of Minimum Inhibition Concentration (MIC)
The minimum inhibition concentration (MIC) values of the compounds 2(a-c) against the test bacteria used in the study were determined according to the broth microdilution method.[1-2] MHB or SDB was used as test medium and bacterial and yeast suspensions were prepared at 0.5 Mc Farland concentration for each test bacteria. Double layer serial dilutions were prepared in "U" type 96-well microtiter plates. Medium+bacteria suspensions containing only medium in the first row, medium+bacteria in the second row and the final concentrations of the synthesised substances in the other rows between 25 mg.mL-1 and […] were added to the wells with a final volume of 200
μL. Ampicillin, Kanamycin and Amphotericin B standard antibiotics were used as positive controls.
Bacteria were incubated at 37±0.1 °C and C. albicans at 30±0.1 °C for 24-48 hours and the lowest concentration without growth was determined as MIC. Tests were performed in two parallel runs and mean values were given as a result. In order to estimate “the minimum bactericidal/fungicidal concentrations (MBC/MFC) of the synthesised acrylonitrile derivatives “needed to indicate […] killing of the original inoculum,” 10 μl was taken from the wells with no observed growth and further sub-cultured onto their agar media (MHA and SDA for bacterial and fungal strains, respectively).[3] […]

Series [3] is described as follows: Cytotoxicity on healthy cells, CCK8 cell viability. Particulars: mouse, L929 mouse fibroblast cells, read-out: Cytotoxic activity IC50; for IC50 at 24 h: L929, 24 h; for IC50 at 48 h: L929, 48 h. Type of series: cell-based, mouse. An excerpt: We investigated the cytotoxic effects of acrylonitrile derivatives 2(a–c) on human lung carcinoma (A549, CCL‐185) cells purchased from American Culture Collection and human breast carcinoma (MCF‐7) cells purchased from Republic of Turkey Ministry of Agriculture and Forestry Şap Institute, (HUKUK, 00092502), In addition, mouse fibroblast cells (L929, CCL‐1) purchased from American Culture Collection were used to observe the effects of the compounds on healthy cells. In 25 T Flask, A549 cells were grown in dulbecco's modified eagle's medium, MCF‐7, and L929 cells were grown in eagle's minimum essential medium (EMEM), 10% fetal bovine serum and 1% Penicillin‐Streptomycin at 37 °C in a 5% CO2 and 100% humidified incubator. Cell proliferation was checked every day. Cells were taken into the experiment when the cell density reached 70% to 80%. (See Supporting Information for experimental preparation of biological studies).
The compounds 2a, 2b, and 2c were dissolved in 99.8% Dimethyl sulfoxide (DMSO) respectively, as
10 mM main stock. To prepare the doses of acrylonitrile compounds used in the experiment to be
applied to the cells, five different concentrations of 31.25; 62.5; 125; 250 and 500 μM were prepared
by diluting the main stock solutions (10 mM) with the medium selected according to the cells. 5-
Fluorouracil (5-FU) was selected as a positive control in the study. After the 5-FU main stock solution
was dissolved with DMSO to be 10 mM, the concentrations to be used were diluted with the selected
media and made ready for the experimental plan. The concentrations used for 5-FU were prepared in
the same doses used for acrylonitrile derivatives. For the negative control group, groups containing
only media and no substance were used. Prepared acrylonitrile compounds and 5-FU concentrations
were added to the wells in three replicates for each dose, and their effects on cell viability at 24 and 48
Trypan blue solution (Gibco, 1525061) was used to distinguish between living and dead cells in the
study. Trypan blue passes uncontrollably through the membrane of dead cells that have lost their cell
membrane integrity and stains the cell blue. Living cells, on the other hand, are not stained because
Live cell counts were performed using trypan blue using a
cell counter (Logos Luna II).
In order to detach the cells adhering to the flasks from the bottom, 500 μL of 0.25% Trypsin-EDTA
(Gibco, 15400054) solution was added and treated for five minutes.
detach from the bottom under an inverted microscope (Zeiss Primovert, Germany), medium containing
10% FBS was added. After centrifugation at 300 g for 5 minutes and discarding the medium, 1 mL of
medium was added and the cells were seeded into 96-well culture dishes as 1x10^4 cells in 100 μL per
Cell Counting Kit 8 (CCK8; Medchem, 146436) was used to determine cell viability. After adding 20 μL
of CCK8 solution to each well in the dark, 96-well culture dishes were wrapped with aluminum foil and
kept in a CO2 incubator at 37 °C for 2 hr. Then, it was automatically read with a microplate reader
(Chromate) at 450 and 630 nm wavelengths. The following formula was used to determine cell
% Viability = (Sample Well−Blank) (Negative Control−Blank)×100 (1)
The half-maximal inhibitory concentration (IC50) was calculated as 50% cell death causing dose
compared to the control group. All data are given as the mean percent fraction of control ± SEM.
Statistical analysis was done by one-way analysis of variance (ANOVA), followed by Tukey’s multiple
comparison tests. IBM SPSS Statistics 22 was used to utilize statistical analysis. […]

Molecules are shown by their SMILES. Values after ≈ are worked out from the molar mass of the structure shown. Some results are limits rather than exact numbers.

`COc1ccc(C=C(C#N)c2ccccc2)cc1` [2a, 3‐(4‐methoxyphenyl)‐2‐phenylacrylonitrile]: in series [1], the zone of inhibition (in general, the extent of the growth-free halo in a diffusion test) is on record as 13 ± 0.71 mm and the zone of inhibition at 50 mg/mL was determined as 13 mm. For the same molecule, the MBC (as a rule, the lowest tested concentration that kills the bacteria rather than only halting them) in series [2] was found to be 25 mg/mL (≈ 106 mM). Further, in series [3], the IC50 – broadly, the concentration needed to halve the response being measured – at 24 h was 351 µM and the IC50 at 48 h was below 31.2 µM.

Consider `COc1ccc(/C=C(\C#N)c2ccc(F)cc2)cc1` [2b], for which, in series [1], the zone of inhibition was found to be 12 ± 1.41 mm and the zone of inhibition at 50 mg/mL was 12 mm. The same molecule yielded an MBC in series [2] of 25 mg/mL (≈ 98.7 mM). Further, in series [3], the IC50 at 24 h is below 250 µM and the IC50 at 48 h is below 31.2 µM.

Take `COc1ccc(/C=C(\C#N)c2cc(C(F)(F)F)cc(C(F)(F)F)c2)cc1` [2c]: in series [1], the zone of inhibition was 13 ± 0 mm and the zone of inhibition at 50 mg/mL turned out to be 13 mm. Besides, in series [2], the MBC came to 12.5 mg/mL (≈ 33.7 mM). In series [3], the IC50 at 24 h came to 410 µM and the IC50 at 48 h is 391 µM.
